Laboratory results: paper PMC5843698, “Use of QSPR Modeling to Characterize In Vitro Binding of Drugs to a Gut-Restricted Polymer” (Pharmaceutical Research, 2018)
Counter-ions that a name gives are not always drawn. Like-named read-outs stand apart in the source and are kept apart here.

Experiments:
[1] = In vitro binding assay: free test drug recovered after 3 h incubation with and without patiromer in SGF, acetate buffer or SIF; details: for SGF / SIF / AB: QSPR input data; for SGF: test matrix SGF; for SIF: test matrix SIF; for AB: test matrix acetate buffer (AB); for In Vitro Binding (% Drug Recovered) SGF (pH 3): simulated gastric fluid, final pH 3.0; for In Vitro Binding (% Drug Recovered) SIF (pH 5.9): simulated intestinal fluid, final pH 5.9
Experimental: Patiromer binding to test compounds was assessed by comparing free test drug concentrations after incubation with and without patiromer. […] Test drug concentrations were based on the lowest clinically relevant dose of test drug in US prescribing information in a 1-L volume.
Three test buffers were used: simulated gastric fluid without added pepsin (SGF; initial pH 1.2), acetate buffer (AB; initial pH 4.5), and simulated intestinal fluid without added pancreatin (SIF; initial pH 6.8). Tween-20 was included at 0.05% v/v as a surfactant to aid in solubilizing test drugs.
Binding studies were performed in a 10 ml volume in 16×100 mm borosilicate tubes, and incubated for 3 h at 37°C with end-over-end rotation at ~25 rpm. After incubation, patiromer was allowed to settle for 5 min; supernatants were withdrawn and passed through a 0.45 μm filter, collected by centrifugation, and transferred to chromatography vials for analysis. Control samples containing buffer and drug, but without patiromer, were subjected to the same experimental process. For 24 of the test drugs, a reversed phase high performance liquid chromatography method was used for analysis in the three test matrices. […] During method qualification, we conducted a pretest of each drug in test media alone to assure no significant loss in recovery during the incubation or filtration steps. If there was not sufficient recovery compared to theoretical concentration, the drug could not be evaluated in that medium. The recovered drug in the presence or absence of patiromer was used to calculate percent recovery of test drug, and represents the geometric mean of 12 replicates.
To measure binding, each compound was co-incubated with patiromer using the highest single clinical dose of polymer and the minimum clinical dose of test drug. […] Following co-incubation, patiromer and any bound drug were removed by centrifugation and the remaining unbound (recovered) drug was measured in the supernatant.

[2] = logD determination (liquid-liquid distribution chromatography, octanol-coated column); details: octanol-coated column with octanol-saturated mobile phase
Experimental: The logD of the sample was determined at pH 7.4 by liquid-liquid distribution chromatography. Compounds were eluted from an octanol-coated column with an octanol-saturated mobile phase adjusted to pH 7.4. Compound retention time was converted to logD value by comparison to the retention time of a set of standard compounds with well-characterized logD octanol values.

[3] = logP determination by titration in octanol/water; details: octanol/water
Text: The shift of the aqueous pKas in the presence of octanol was used to determine the logP of the different species.

[4] = pKa determination by titration in aqueous solution (UV or pH monitored); details: aqueous solution, average of three determinations
Experimental: Test drug pKas were determined experimentally by titration in aqueous solution. Ionization state was monitored by UV or pH. Reported values are the average of three independent determinations. […] Drug concentration was in the range 17–31 μM (UV) or ≥0.4 mM (pH).

[5] = across SGF, AB and SIF test matrices
[6] = patiromer 25.2 g/L, 3 h, 37°C, geometric mean of 12 replicates
[7] = acetate buffer pH 4.5, patiromer 25.2 g/L, 3 h, 37°C, geometric mean of 12 replicates

| Compound | chromatographic logD ([2]; pH 3) | chromatographic logD ([2]; pH 4.5) | chromatographic logD ([2]; pH 5.9) | logP [3] | pKa ([4]; pKa (A = acid), acidic group) | In vitro patiromer binding category ([1]; strong, weak or non-binding) | SGF [1] | SIF [1] | AB [1] | Binding categories (level of in vitro interaction with patiromer) [1, 5] | In Vitro Binding (% Drug Recovered) Acetate Buffer (pH 4.5) ([1]; pH 4.5) | In Vitro Binding (% Drug Recovered) SGF (pH 3) [1, 6] | In Vitro Binding (% Drug Recovered) SIF (pH 5.9) [1, 6] | In Vitro Binding (% Drug Recovered) Acetate Buffer (pH 4.5) [1, 7] | pKa ([4]; pKa (B = base), basic group) | Binding categories (level of in vitro interaction with patiromer) [1] |
| --- | --- | --- | --- | --- | --- | --- | --- | --- | --- | --- | --- | --- | --- | --- | --- | --- |
| Cc1cnc(C(=O)NCCc2ccc(S(=O)(=O)NC(=O)NC3CCCCC3)cc2)cn1 [Glipizide] | – | – | – | – | – | – | 72.9 | 98.5 | 96.5 | No binding (<30% drug bound in any test matrix) | 96.5% | 72.9% | 98.5% | – | – | – |
| NCCCC[C@H](N[C@@H](CCc1ccccc1)C(=O)O)C(=O)N1CCC[C@H]1C(=O)O [Lisinopril] | -0.85 | -0.52 | -0.54 | -0.51 | 1.63 | – | 77.9 | 98.5 | 100.7 | No binding (<30% drug bound in any test matrix) | – | 77.9% | 98.5% | 100.7% | 7.13 | – |
| O=C([O-])[O-].[Li+].[Li+] [Lithium carbonate] | – | – | – | – | – | – | – | – | – | – | – | 93.3% | 56.9% | 88.8% | – | Weak binder (key: No binding: <30% drug bound in any test matrix; Weak binder: 30–55% bound in one test matrix; Strong binder: >55% bound in two or three test matrices) |
| COCCc1ccc(OCC(O)CNC(C)C)cc1 (stereo not shown) [Metoprolol tartrate] | -4.7 | -3.2 | -1.8 | 1.91 | – | – | – | – | – | – | – | – | – | – | – | – |
| O=C1NC(=O)C(c2ccccc2)(c2ccccc2)N1 [Phenytoin sodium] | 2.43 | 2.43 | 2.43 | 2.43 | 8.18 | – | 83.4 | 92.8 | 90.2 | No binding (<30% drug bound in any test matrix) | – | 83.4% | 92.8% | 90.2% | – | – |
| CC(=O)S[C@@H]1CC2=CC(=O)CC[C@]2(C)[C@H]2CC[C@@]3(C)[C@@H](CC[C@@]34CCC(=O)O4)[C@H]12 [Spironolactone] | 2.53 | 2.53 | 2.53 | 2.53 | – | – | 78.7 | 96.8 | 98.6 | No binding (<30% drug bound in any test matrix) | – | 78.7% | 96.8% | 98.6% | – | – |
| Digoxin | – | – | – | – | – | – | – | 103.4 | 109.3 | No binding (<30% drug bound in any test matrix) | – | – | 103.4% | 109.3% | – | – |

More lines, main results first:

| chromatographic logD ([2]; pH 3) | chromatographic logD ([2]; pH 4.5) | chromatographic logD ([2]; pH 5.9) | logP [3] | pKa ([4]; pKa (A = acid), acidic group) | In vitro patiromer binding category ([1]; strong, weak or non-binding) | Compound | SGF [1] | SIF [1] | AB [1] | Binding categories (level of in vitro interaction with patiromer) [1, 5] | In Vitro Binding (% Drug Recovered) Acetate Buffer (pH 4.5) ([1]; pH 4.5) | In Vitro Binding (% Drug Recovered) SGF (pH 3) [1, 6] | In Vitro Binding (% Drug Recovered) SIF (pH 5.9) [1, 6] | In Vitro Binding (% Drug Recovered) Acetate Buffer (pH 4.5) [1, 7] | pKa ([4]; pKa (B = base), basic group) | Binding categories (level of in vitro interaction with patiromer) [1] |
| --- | --- | --- | --- | --- | --- | --- | --- | --- | --- | --- | --- | --- | --- | --- | --- | --- |
| < -1.5 | < -1.5 | < -1.5 | < -1.5 | 9.87 | – | Cc1cc2nc3c(=O)[nH]c(=O)nc-3n(C[C@H](O)[C@H](O)[C@H](O)CO)c2cc1C [Riboflavin] | – | – | – | – | – | – | – | – | – | – |
| 1.43 | 1.43 | 1.43 | 1.43 | – | – | O=C(NC[C@H]1CN(c2ccc(N3CCOCC3=O)cc2)C(=O)O1)c1ccc(Cl)s1 [Rivaroxaban] | 71.9 | 95.1 | 92.9 | No binding (<30% drug bound in any test matrix) | – | 71.9% | 95.1% | 92.9% | – | – |
| < -1.5 | < -1.5 | < -1.5 | < -1.5 | – | – | Cc1ncc(C[n+]2csc(CCO)c2C)c(N)n1 [Thiamin] | – | – | – | – | – | 28.8% | 42.9% | 50.7% | 4.88 | – |
| – | – | – | – | – | non-binding | CCCCC(=O)N(Cc1ccc(-c2ccccc2-c2nnn[nH]2)cc1)[C@H](C(=O)O)C(C)C [Valsartan] | 86.4 | 98 | 101.4 | No binding (<30% drug bound in any test matrix) | – | 86.4% | 98% | 101.4% | – | – |
